Like-named read-outs stand apart in the source and are kept apart here.
Experiments:
[1] = test system: AsPC-1 cells containing homozygous KRAS-G12D activating mutation; assay: Cellular phospho-ERK assay (Examples 1a-106); type: cell-based; conditions: AsPC-1 cells, 2 hours, ratio of p-Erk vs total Erk, read-out: IC50 (nM) pERK (Cell)
Text: 5% CO? overnight. […] Assay plates were read on a EnVision Multimode Plate Reader (PerkinElmer) and the ratio of p-Erk vs total Erk in each well was used as the final readout.

[2] = target: KRAS G12D / Ras binding domain of C-RAF (Homo sapiens (Human), UniProt P01116, G12D); assay: RAS:RAF-RBD binding assay (cRaf), TR-FRET; conditions: biotinylated KRAS G12D, GST-C-RAF RBD
[3] = target: KRAS protein containing G12D mutation (Homo sapiens (Human), UniProt P01116, G12D); assay: SOS-catalyzed nucleotide exchange assay (GNE), TR-FRET; type: biochemical; conditions: biotinylated KRAS G12D, SOS and GTP, 60-minute incubation
Protocol: Compounds are added to this complex and then after a 60-minute incubation time the mixture is treated with SOS and unlabeled GTP. Small molecule inhibitors stabilize the Bodipy-GDP complex whereas the untreated protein rapidly exchanges Bodipy-GDP for unlabeled GTP resulting in reduced TR-FRET signal.
This solution is referred to as biotinylated KRAS G12D stock solution.

KRAS G12D / Ras binding domain of C-RAF, sequence (P01116 other isoform, or with tags, fused parts or gaps G12D (already in the parent)): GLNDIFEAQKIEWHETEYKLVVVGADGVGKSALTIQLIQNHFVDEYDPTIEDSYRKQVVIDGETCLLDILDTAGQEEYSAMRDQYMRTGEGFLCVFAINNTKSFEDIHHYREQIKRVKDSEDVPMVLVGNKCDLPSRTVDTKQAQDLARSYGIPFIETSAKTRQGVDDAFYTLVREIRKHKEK
KRAS protein containing G12D mutation, sequence (P01116 other isoform, or with tags, fused parts or gaps G12D (already in the parent)): as above

For `CN(C)C[C@@]1(COc2nc(N3C[C@H]4CC[C@@](C)(C3)N4)c3cc(F)c(-c4cc(O)cc5ccccc45)c(F)c3n2)CC1(F)F` [Ex 69, 4-(2-(((R)-1-((dimethylamino)methyl)-2,2-difluorocyclopropyl)methoxy)-6,8-difluoro-4-((1S,5R)-1-methyl-3,8-diazabicyclo[3.2.1]octan-3-yl)quinazolin-7-yl)naphthalen-2-ol], the IC50 ([1]; Homo sapiens, ASPC1, 2 h) was 275 nM, the IC50 ([2]; IC50 (nM) (cRaf)) was 194 nM and the IC50 [3] was 1.76 nM.

`CN(C)C[C@@]1(COc2nc(N3C[C@H]4CC[C@@](C)(C3)N4)c3cc(Cl)c(-c4c(F)cc(F)c5ccc(N)nc45)c(F)c3n2)CC1(F)F` (single isomer, unassigned) [92b] showed an IC50 [1] of 5320 nM, an IC50 ([2]; IC50 (nM) (cRaf)) of 9210 nM and an IC50 [3] of 236 nM.

For `Cc1c(Cl)cc2[nH]ncc2c1-c1c(F)cc2c(N3CC4CCC(C3)N4)nc(OCC3(CN(C)C)CC3)nc2c1F` [Example 58, 1-(1-(((4-(3,8-diazabicyclo[3.2.1]octan-3-yl)-7-(6-chloro-5-methyl-1H-indazol-4-yl)-6,8-difluoroquinazolin-2-yl)oxy)methyl)cyclopropyl)-N,N-dimethylmethanamine], the IC50 ([1]; Homo sapiens, ASPC1, 2 h) was 5900 nM, the IC50 ([2]; IC50 (nM) (cRaf)) was 45300 nM and the IC50 [3] was 256 nM.

`CN(C)C[C@]1(COc2nc(N3CC4CCC(C3)N4)c3cc(Cl)c(-c4cc(O)cc5ccccc45)c(F)c3n2)CC1(F)F` (atropisomer, axis not shown) [Example 11b, 4-(4-(3.8-diazabicyclo[3.2.1]octan-3-yl)-6-chloro-2-(((S)-1-((dimethylamino)methyl)-2,2-difluorocyclopropyl)methoxy)-8-fluoroquinazolin-7-yl)naphthalen-2-ol] showed an IC50 [1] of 6260 nM, an IC50 ([2]; read-out: IC50 (nM) (cRaf)) of 7240 nM and an IC50 [3] of 131 nM.

`C[C@]12CC[C@H](CN(c3nc(OCC4(CN5CC[C@@H](F)C5)CC4)nc4c(F)c(-c5cc(O)cc6ccccc56)c(F)cc34)C1)N2` [Ex 81, 4-(6,8-difluoro-2-((1-(((R)-3-fluoropyrrolidin-1-yl)methyl)cyclopropyl)methoxy)-4-((1S,5R)-1-methyl-3,8-diazabicyclo[3.2.1]octan-3-yl)quinazolin-7-yl)naphthalen-2-ol] gave an IC50 ([1]; Homo sapiens, ASPC1, 2 h) of 467 nM, an IC50 ([2]; IC50 (nM) (cRaf)) of 1980 nM and an IC50 [3] of 16.5 nM.

With `Cc1cc2[nH]ncc2c(-c2c(F)cc3c(N4C[C@H]5CC[C@@](C)(C4)N5)nc(OC[C@]4(CN(C)C)CC4(F)F)nc3c2F)c1C` [Ex 82, 1-((1R)-1-(((7-(5,6-dimethyl-1H-indazol-4-yl)-6,8-difluoro-4-((1S,5R)-1-methyl-3,8-diazabicyclo[3.2.1]octan-3-yl)quinazolin-2-yl)oxy)methyl)-2,2-difluorocyclopropyl)-N,N-dimethylmethanamine] the IC50 ([1]; Homo sapiens, ASPC1, 2 h) was 2200 nM, the IC50 ([2]; IC50 (nM) (cRaf)) was 14800 nM and the IC50 [3] was 89.3 nM.

Work on `Cc1cc2[nH]ncc2c(-c2c(F)cc3c(N4C[C@H]5CC[C@@](C)(C4)N5)nc(OC[C@]4(CN(C)C)CC4(F)F)nc3c2F)c1C(F)(F)F` (single isomer, unassigned) [Ex 76a] yielded an IC50 [1] of 593 nM, an IC50 ([2]; IC50 (nM) (cRaf)) of 1810 nM and an IC50 [3] of 12 nM.

Work on `Cc1cc2[nH]ncc2c(-c2c(F)cc3c(N4CC5CCC(C4)N5)nc(OCC4(CN5CCOCC5)CC4)nc3c2F)c1C(F)(F)F` [Ex 72, 4-((1-(((4-(3,8-diazabicyclo[3.2.1]octan-3-yl)-6,8-difluoro-7-(6-methyl-5-(trifluoromethyl)-1H-indazol-4-yl)quinazolin-2-yl)oxy)methyl)cyclopropyl)methyl)morpholine] yielded an IC50 ([1]; Homo sapiens, ASPC1, 2 h) of 2500 nM, an IC50 ([2]; IC50 (nM) (cRaf)) of 7440 nM and an IC50 [3] of 30.8 nM.

`C#Cc1cccc2cc(O)cc(-c3c(F)cc4c(N5C[C@]6(C)CC[C@H]5CN6)nc(OC[C@@]56CCCN5C[C@H](F)C6)nc4c3F)c12` [compound 104, 4-(6,8-difluoro-2-(((2R,7aS)-2-fluorotetrahydro-1H-pyrrolizin-7a(5H)-yl)methoxy)-4-((1S,4S)-4-methyl-2,5-diazabicyclo[2.2.2]octan-2-yl)quinazolin-7-yl)-5-ethynylnaphthalen-2-ol] showed an IC50 ([1]; Homo sapiens, ASPC1, 2 h) of 11.8 nM, an IC50 ([2]; IC50 (nM) (cRaf)) of 5.93 nM and an IC50 [3] of 1.05 nM.

Compound `O=c1oc(-c2cc(O)cc3ccccc23)cc2nc(OCC3(CN4CCOCC4)CC3)nc(N3CC4CCC(C3)N4)c12` [Ex. 95, 4-(3.8-diazabicyclo[3.2.1]octan-3-yl)-7-(3-hydroxynaphthalen-1-yl)-2-((1-(morpholinomethyl)cyclopropyl)methoxy)-5H-pyrano[4.3-d]pyrimidin-5-one] has an IC50 [1] of 10800 nM, an IC50 ([2]; read-out: IC50 (nM) (cRaf)) of 15900 nM and an IC50 [3] of 73.4 nM.

`CN(C)CC1(COc2nc(N3CC4CC[C@@](C)(C3)N4)c3cc(Cl)c(-c4cc(O)cc5ccccc45)c(F)c3n2)CC1` [Example 35, 4-(6-chloro-2-((1-((dimethylamino)meth-yl)cyclopro-pyl)methoxy)-8-fluoro-4-((1S,5R)-1-methyl-3,8-diaza-bicyclo[3.2.1]octan-3-yl)quinazolin-7-yl)naphthalen-2-ol] gave an IC50 ([1]; Homo sapiens, ASPC1, 2 h) of 2260 nM, an IC50 ([2]; IC50 (nM) (cRaf)) of 1890 nM and an IC50 [3] of 27.3 nM.

`C[C@@]12CC(O)[C@@](C)(CN(c3nc(OC[C@@]45CCCN4C[C@H](F)C5)nc4c(F)c(-c5cc(O)cc6cccc(Cl)c56)c(F)cc34)C1)N2` (stereo partly drawn) [Example 106] was tested, and the IC50 [1] was 76.1 nM, the IC50 ([2]; read-out: IC50 (nM) (cRaf)) was 49.4 nM and the IC50 [3] was 2.09 nM.

Source: US20240239788A1, “SMALL MOLECULE INHIBITORS OF KRAS G12D MUTANT” (Merck Sharp & Dohme LLC, priority 2021, published 2024)
